This note sets out measurements from patent US20090054501A1, “AZOLE COMPOUNDS USED AS TUBERCULOSTATIC AND LEISHMANICIDE AGENTS” (priority 2005, published 2009).

Converted amounts (≈) assume the structure as drawn. “And” between values parts separate entries of the source, which are not always exact repeats. Identical values can stand only once. Like-named read-outs stand apart in the source and are kept apart here.

The subject of test [1] is Mycobacterium tuberculosis H37Rv (ATCC-27294). Put plainly: MIC by MABA (Microplate Alamar Blue Assay), in vitro antimicrobial activity. Type of test: cell-based. Conditions: for Inhibition (%): Table 2, M. tuberculosis H37Rv (ATCC 27294), concentration not given. For orientation: The colour change of resazurin is a common sign of viable cells or microbes.
The test system of test [2] is promastigote forms of Leishmania amazonensis. The test can be described thus: Leishmanicide evaluation in vitro, live parasites counted by fluorescence. It is filed as cell-based. Conditions: L. amazonensis promastigotes, read-out: Percentage of parasitic inhibition; for inhibition at 10 µg/mL: concentration 10 μg/mL; for inhibition at 160 µg/mL: concentration 160 μg/mL. The method, then: The evaluation of the leishmanicide activity of the type I and II 1,2,3-triazole derivatives was made through in vitro essays against promastigote forms of Leishmania amazonensis, and after the incubation with compounds, live parasites are counted by fluorescence, thus obtaining as a result, the percentage of inhibition of the compounds evaluated.
Essays were performed in triplicate using pentamidine as a positive pattern with a 160 μg/mL concentration.
The evaluation of the leishmanicide activity of type I (Formula XII) and II (Formula XIII) imidazole derivatives was performed through in vitro essays against promastigote forms of Leishmania amazonensis, and after the incubation with compounds, live parasites are counted by fluorescence, thus obtaining as a result the inhibition percentage of the evaluated compounds.
Essays were performed in triplicate using pentamidine as a positive pattern with a 160 μg/mL concentration, determining which compounds evaluated inhibited the parasite in lower concentrations and the percentage higher than the pattern. Table 6 lists the results obtained in the leishmanicide evaluation of derivatives 140a 148a 146a, 149a.

The mark [3] stands for this setting: Mycobacterium tuberculosis, Table 4, type I (Formula XII) imidazole derivatives, read-out: MIC.
The mark [4] stands for this setting: Table 2, type I and II 1,2,3-triazoles, M. tuberculosis H37Rv (ATCC 27294), MABA.
Setting [5] is: 1,2,3-triazole derivatives types I-III and rifampicin comparison pattern, M. tuberculosis H37Rv, MABA.
Setting [6] is: Mycobacterium tuberculosis, Table 2, type I and II 1,2,3-triazoles, M. tuberculosis H37Rv (ATCC 27294), MABA, read-out: MIC.
The mark [7] stands for this setting: Mycobacterium tuberculosis, 1,2,3-triazole derivatives types I-III and rifampicin comparison pattern, M. tuberculosis H37Rv, MABA, read-out: MIC.
Where [8] appears, read: Mycobacterium tuberculosis, Table 5, type II (Formula XIII) imidazole derivatives, read-out: MIC.

`CCOC(=O)c1ncn(-c2ccc(C)cc2)c1N(C(=O)c1ccccc1F)C(=O)c1ccccc1F` [146a]: the MIC in test [1] (setting [3]) was 3 µg/mL (≈ 6.13 µM). Besides, in test [2] (concentration 80 μg/mL), the inhibition at 80 µg/mL is 75%.

Regarding `COc1ccc(OC)c(-n2cc(C=O)nn2)c1` [114e, 4-carboxaldehyde-1-(2,5-dimethoxyphenyl)-1H-1,2,3-triazole], the “MIC (μg/mL)” value in test [1] (setting [4]) was 80,0 μg/mL.

On to `Brc1ccc(/N=C/c2cn(-c3ccc(Br)cc3)nn2)cc1` [compound 120, (E)-4-bromo-N-((1-(4-bromophenyl)-1H-1,2,3-triazole-4-il)methylene) benzenamine], for which the MIC in test [1] (setting [5]) amounted to 20 µg/mL (≈ 49.3 µM).

In the case of `CCOC(=O)c1ncn(-c2ccc(C#N)cc2)c1N(C(=O)c1ccc(F)cc1)C(=O)c1ccc(F)cc1` [140b], the MIC in test [1] (setting [3]) came to 1.2 µg/mL (≈ 2.4 µM).

As for `O=Cc1cn(-c2ccc(Br)cc2)nn1` [114b, 4-carboxaldehyde-1-(4-bromophenyl)-1H-1,2,3-triazole], the MIC in test [1] (setting [5]) was 5.0 µg/mL (≈ 19.8 µM). In test [1] (setting [4]), the “MIC (μg/mL)” value is 5,0 μg/mL.

As to `FC(F)c1cn(-c2cccc(Cl)c2)nn1` [121f, 1-(3-chlorophenyl)-4-difluoromethyl-1H-1,2,3-triazole], in test [1] (setting [6]), the MIC is 80 µg/mL (≈ 348 µM). Further, the “Inhibition (%)” value in test [1] worked out at 54%. In test [2], the inhibition at 10 µg/mL stood at 93%.

Turning to `COc1ccc(-n2cc(C(F)F)nn2)cc1OC` [121m, 1-(3,4-dimethoxyphenyl)-4-difluoromethyl-1H-1,2,3-triazole], in test [1] (setting [6]), the MIC amounted to 80 µg/mL (≈ 313 µM). Also, the “Inhibition (%)” value in test [1] was found to be 66%.

Turning to `N#Cc1ccc(-n2cc(C(F)F)nn2)cc1` [121i, 1-(4-cyanophenyl)-4-difluoromethyl-1H-1,2,3-triazole], the MIC in test [1] (setting [6]) was 20 µg/mL (≈ 90.8 µM).

In the case of `CO[C@H]1/C=C/O[C@@]2(C)Oc3c(C)c(O)c4c(O)c(c(/C=N/N5CCN(C)CC5)c(O)c4c3C2=O)NC(=O)/C(C)=C\C=C\[C@H](C)[C@H](O)[C@@H](C)[C@@H](O)[C@@H](C)[C@H](OC(C)=O)[C@@H]1C` [Rifampicin, rifampicin, reference compound], the MIC in test [1] (setting [5]) amounted to 1.0 µg/mL (≈ 1.22 µM); in test [1] (Mycobacterium tuberculosis, imidazole derivatives and rifampicin comparison pattern, M. tuberculosis H37Rv, MABA, read-out: MIC), 1 µg/mL (≈ 1.22 µM). In addition, the “MIC (μg/mL)” value in test [1] (setting [4]) is reported as 1,0 μg/mL.

For the molecule `O=[N+]([O-])c1ccc(-n2cc(C(F)F)nn2)cc1` [121j, 1-(4-nitrophenyl)-4-difluoromethyl-1H-1,2,3-triazole], in test [1] (setting [7]), the MIC was found to be 40 µg/mL (≈ 167 µM).

Consider `CCOC(=O)c1ncn(-c2ccc(Cl)cc2)c1N(C(=O)c1ccccc1F)C(=O)c1ccccc1F` [146c], for which the MIC in test [1] (setting [3]) stood at 3 µg/mL (≈ 5.88 µM).

For the molecule `FC(F)c1cn(-c2cc(Cl)cc(Cl)c2)nn1` [121g, 1-(3,5-dichlorophenyl)-4-difluoromethyl-1H-1,2,3-triazole], in test [1] (setting [6]), the MIC was found to be 80 µg/mL (≈ 303 µM). Further, the “Inhibition (%)” value in test [1] stood at 55%.

Consider `O=Cc1cn(-c2cc(Cl)cc(Cl)c2)nn1` [114g, 4-carboxaldehyde-1-(3,5-dichlorophenyl)-1H-1,2,3-triazole], for which the minimum inhibitory concentration (MIC) in test [1] (setting [5]) is 2.5 µg/mL (≈ 10.3 µM). The “MIC (μg/mL)” value in test [1] (setting [4]) is listed as 2,5 μg/mL.

As to `FC(F)c1cn(-c2ccc(Br)cc2)nn1` [121b, 1-(4-bromophenyl)-4-difluoromethyl-1H-1,2,3-triazole], in test [1] (setting [6]), the MIC stood at 20 µg/mL (≈ 73 µM). Besides, in test [1], the “Inhibition (%)” value came out at 75%.

On to `O=Cc1cn(-c2ccc([N+](=O)[O-])cc2)nn1` [114j, 4-carboxaldehyde-1-(4-nitrophenyl)-1H-1,2,3-triazole], for which the MIC in test [1] (setting [7]) was 20 µg/mL (≈ 91.7 µM). In test [2], the inhibition at 160 µg/mL amounted to 11%.

As to `N#Cc1ccc(-n2cc(C=O)nn2)cc1` [114i, 4-carboxaldehyde-1-(4-cyanophenyl)-1H-1,2,3-triazole], the MIC in test [1] (setting [5]) was 5.0 µg/mL (≈ 25.2 µM). For the same molecule, the “MIC (μg/mL)” value in test [1] (setting [4]) is given as 5,0 μg/mL.

Turning to `O=Cc1cn(-c2cccc(Cl)c2)nn1` [114f, 4-carboxaldehyde-1-(3-chlorophenyl)-1H-1,2,3-triazole], the MIC in test [1] (setting [6]) was 10 µg/mL (≈ 48.2 µM). For the same molecule, the “Inhibition (%)” value in test [1] worked out at 100%. In addition, in test [2] (concentration 320 μg/mL), the inhibition at 320 µg/mL amounted to 72%.

For `CCOC(=O)c1ncn(-c2ccc(C#N)cc2)c1NC(=O)c1ccccc1F` [149b, Ester ethyl 1-(4-cyanophenyl)-5-[(2-fluorobenzoic)amino]-1H-imidazole-4-carboxylate], in test [1] (setting [8]), the MIC was 3 µg/mL (≈ 7.93 µM).

As to `CCOC(=O)c1ncn(-c2c(F)cccc2F)c1N(C(=O)c1ccccc1F)C(=O)c1ccccc1F` [146e], in test [1] (setting [3]), the MIC was determined as 3 µg/mL (≈ 5.87 µM).

For `Cc1ccc(-n2cc(C(F)F)nn2)cc1` [121c, 1-(4-methylphenyl)-4-difluoromethyl-1H-1,2,3-triazole], the MIC in test [1] (setting [6]) was determined as 40 µg/mL (≈ 191 µM). Further, in test [1], the “Inhibition (%)” value was 87%.

For the molecule `COc1ccc(-n2cc(C=O)nn2)cc1OC` [114m, 4-carboxaldehyde 1-(3,4-dimethoxyphenyl)-1H-1,2,3-triazole], the “MIC (μg/mL)” value in test [1] (setting [4]) is recorded as 80,0 μg/mL.

Regarding `CCOC(=O)c1ncn(-c2ccc(C)cc2)c1NC(=O)c1ccccc1F` [149a, Ester ethyl 5-[(2-fluorobenzoic)amino]-1-(4-methylphenyl)-1H-imidazole-4-carboxylate], the inhibition at 160 µg/mL in test [2] is 93%.

For `N#Cc1cccc(-n2cc(C(F)F)nn2)c1` [121h, 1-(3-cyanophenyl)-4-difluoromethyl-1H-1,2,3-triazole], the MIC in test [1] (setting [6]) came out at 80 µg/mL (≈ 363 µM).

Regarding `COc1ccccc1-n1cc(C=O)nn1` [114l, 4-carboxaldehyde-1-(2-methoxyphenyl)-1H-1,2,3-triazole], the “MIC (μg/mL)” value in test [1] (setting [4]) is 40,0 μg/mL.

Take `O=Cc1cn(-c2ccc(Cl)cc2)nn1` [114a, 4-carboxaldehyde-1-(4-chlorophenyl)-1H-1,2,3-triazole]: in test [1] (setting [5]), the MIC was 5 µg/mL and 5.0 µg/mL. In addition, the “MIC (μg/mL)” value in test [1] (setting [4]) was 5,0 μg/mL.

With `CCOC(=O)c1ncn(-c2ccc(C)cc2)c1NC(=O)c1ccc(F)cc1` [148a, Ester ethyl 5-[(4-fluorobenzoic)amino]-1-(4-methylphenyl)-1H-imidazole-4-carboxylate], the MIC in test [1] (setting [8]) worked out at 3 µg/mL (≈ 8.17 µM). For the same molecule, the inhibition at 10 µg/mL in test [2] is 90%.

Turning to `Clc1ccc(/N=C/c2cn(-c3ccc(Cl)cc3)nn2)cc1` [compound 119, (E)-4-chloride-N-((1-(4-chlorophenyl)-1H-1,2,3-triazole-4-il)methylene) benzenamine], the MIC in test [1] (setting [5]) is 40 µg/mL (≈ 126 µM).

On to `N=C(N)c1ccc(OCCCCCOc2ccc(C(=N)N)cc2)cc1` [Pentamidine, pentamidine, reference compound], for which the inhibition at 160 µg/mL in test [2] was 53%.

As to `COc1ccc(OC)c(-n2cc(C(F)F)nn2)c1` [121e, 1-(2,5-dimethoxyphenyl)-4-difluoromethyl-1H-1,2,3-triazole], the MIC in test [1] (setting [6]) came to 80 µg/mL (≈ 313 µM). Besides, the “Inhibition (%)” value in test [1] turned out to be 74%.

Turning to `N#Cc1cccc(-n2cc(C=O)nn2)c1` [114h, 4-carboxaldehyde-1-(3-cyanophenyl)-1H-1,2,3-triazole], the “MIC (μg/mL)” value in test [1] (setting [4]) was 20,0 μg/mL.

For `CCOC(=O)c1ncn(-c2ccc(C)cc2)c1N(C(=O)c1ccc(F)cc1)C(=O)c1ccc(F)cc1` [140a], in test [2], the inhibition at 10 µg/mL was 79%.

As to `CCOC(=O)c1ncn(-c2ccc(Cl)cc2)c1NC(=O)c1ccccc1F` [149c, Ester ethyl 1-(4-chlorophenyl)-5-[(2-fluorobenzoic)amino]-1H-imidazole-4-carboxylate], the MIC in test [1] (setting [8]) was found to be 3 µg/mL (≈ 7.74 µM).

Regarding `COc1ccc(-n2cc(C(F)F)nn2)cc1` [121d, 1-(4-methoxyphenyl)-4-difluoromethyl-1H-1,2,3-triazole], the MIC in test [1] (setting [6]) came out at 10 µg/mL (≈ 44.4 µM). In test [1], the “Inhibition (%)” value worked out at 93%.

`COc1ccc(-n2cc(C=O)nn2)cc1` [114d, 4-carboxaldehyde-1-(4-methoxyphenyl)-1H-1,2,3-triazole]: in test [1] (setting [4]), the “MIC (μg/mL)” value was 10,0 μg/mL.

On to `Cc1ccc(-n2cc(C=O)nn2)cc1` [114c, 4-carboxaldehyde-1-(4-methylphenyl)-1H-1,2,3-triazole], for which, in test [1] (setting [5]), the MIC is 2.5 µg/mL (≈ 13.4 µM). Besides, the “MIC (μg/mL)” value in test [1] (setting [4]) is reported as 2,5 μg/mL.

Molecule `FC(F)c1cn(-c2ccc(Cl)cc2)nn1` [121a, 1-(4-chlorophenyl)-4-difluoromethyl-1H-1,2,3-triazole] yielded an MIC in test [1] (Mycobacterium tuberculosis) of 40 µg/mL (≈ 174 µM). Besides, the “MIC (μg/mL)” value in test [1] (setting [4]) was 40,0 μg/mL.

The MIC is the lowest concentration found to suppress growth. For orientation: inhibition means the share of the control response that was lost under treatment.
